Measurements reported in patent publication US20260108646A1, “METHOD AND DEVICE FOR DI[…]/OR S[…]” (SCHWING TECHNOLOGIES GMBH, priority 2022, published 2026).

Experiments:
[1] = tested on: Geobacillus stearothermophilus spores; assay: Validation tests for disinfection of bio-indicator spore strips SAL 10^5; assay type: cell-based; conditions: 50-55° C.
[2] = tested on: Geobacillus stearothermophilus spores; assay: Validation tests for disinfection of laboratory utensils sprinkled with spore suspension SAL 10^6; assay type: cell-based; conditions: for Biological Result #not sterile/#tested: PES in solution 4 %
[3] = tested on: human patellar tendon allografts; conditions: in vitro study, human patellar tendon allografts [98]; cited from earlier work

CC(=O)OO [PES, peracetic acid]
growth or proliferation of the spores after treatment ([1]; all spore strips tested at different PES concentrations and different processing times): no growth or proliferation of the spores could be detected
Biological Result #not sterile/#tested ([1]; test 1, PES in solution 6 %, PES in process chamber 3 g/m^3, process duration 240 min): 0/2
Biological Result #not sterile/#tested ([1]; test 2, PES in solution 6 %, PES in process chamber 3 g/m^3, process duration 120 min): 0/1
Biological Result #not sterile/#tested ([1]; test 3, PES in solution 6 %, PES in process chamber 1.7 g/m^3, process duration 150 min): 0/2
Biological Result #not sterile/#tested ([1]; test 4, PES in solution 4 %, PES in process chamber 2 g/m^3, process duration 120 min): 0/1
Biological Result #not sterile/#tested ([1]; test 5, PES in solution 4 %, PES in process chamber 1.9 g/m^3, process duration 120 min): 0/2
Biological Result #not sterile/#tested ([1]; test 6, PES in solution 4 %, PES in process chamber 1.9 g/m^3, process duration 90 min): 0/2
Biological Result #not sterile/#tested ([1]; test 7, PES in solution 4 %, PES in process chamber 1.9 g/m^3, process duration 60 min): 0/4
Biological Result #not sterile/#tested ([1]; test 8, PES in solution 4 %, PES in process chamber 1.9 g/m^3, process duration 45 min): 0/1
Biological Result #not sterile/#tested ([1]; test 9, PES in solution 4 %, PES in process chamber 1.9 g/m^3, process duration 40 min): 0/2
Biological Result #not sterile/#tested ([1]; test 10, PES in solution 4 %, PES in process chamber 1.9 g/m^3, process duration 30 min): 0/2
Biological Result #not sterile/#tested ([1]; test 11, PES in solution 4 %, PES in process chamber 1.9 g/m^3, process duration 20 min): 0/2
Biological Result #not sterile/#tested ([1]; test 12, PES in solution 4 %, PES in process chamber 1.9 g/m^3, process duration 15 min): 0/1
Biological Result #not sterile/#tested ([1]; test 13, PES in solution 4 %, PES in process chamber 1.9 g/m^3, process duration 10 min): 0/1
Biological Result #not sterile/#tested ([1]; test 14, PES in solution 4 %, PES in process chamber 1.9 g/m^3, process duration 5 min): 0/1
Biological Result #not sterile/#tested ([1]; test 15, PES in solution 4 %, PES in process chamber 1.7 g/m^3, process duration 20 min): 0/1
Biological Result #not sterile/#tested ([1]; test 16, PES in solution 4 %, PES in process chamber 1.7 g/m^3, process duration 15 min): 0/1
Biological Result #not sterile/#tested ([1]; test 17, PES in solution 4 %, PES in process chamber 1.5 g/m^3, process duration 240 min): 0/2
Biological Result #not sterile/#tested ([1]; test 18, PES in solution 4 %, PES in process chamber 1.5 g/m^3, process duration 150 min): 0/2
Biological Result #not sterile/#tested ([1]; test 19, PES in solution 4 %, PES in process chamber 1.3 g/m^3, process duration 20 min): 0/1
Biological Result #not sterile/#tested ([1]; test 20, PES in solution 4 %, PES in process chamber 1.3 g/m^3, process duration 15 min): 0/1
Biological Result #not sterile/#tested ([1]; test 21, PES in solution 4 %, PES in process chamber 0.94 g/m^3, process duration 60 min): 0/5
Biological Result #not sterile/#tested ([1]; test 22, PES in solution 4 %, PES in process chamber 0.94 g/m^3, process duration 40 min): 0/1
Biological Result #not sterile/#tested ([1]; test 23, PES in solution 4 %, PES in process chamber 0.94 g/m^3, process duration 30 min): 0/2
Biological Result #not sterile/#tested ([1]; test 24, PES in solution 4 %, PES in process chamber 0.94 g/m^3, process duration 20 min): 0/2
Biological Result #not sterile/#tested ([1]; test 25, PES in solution 4 %, PES in process chamber 0.94 g/m^3, process duration 15 min): 0/1
Biological Result #not sterile/#tested ([1]; test 26, PES in solution 4 %, PES in process chamber 0.94 g/m^3, process duration 10 min): 0/1
Biological Result #not sterile/#tested ([1]; test 27, PES in solution 4 %, PES in process chamber 0.94 g/m^3, process duration 5 min): 0/1
Biological Result #not sterile/#tested ([1]; test 28, PES in solution 4 %, PES in process chamber 0.47 g/m^3, process duration 60 min): 0/1
Biological Result #not sterile/#tested ([1]; test 29, PES in solution 4 %, PES in process chamber 0.47 g/m^3, process duration 30 min): 0/1
Biological Result #not sterile/#tested ([1]; test 30, PES in solution 4 %, PES in process chamber 0.47 g/m^3, process duration 15 min): 0/1
Biological Result #not sterile/#tested ([1]; test 31, PES in solution 4 %, PES in process chamber 0.47 g/m^3, process duration 10 min): 0/1
Biological Result #not sterile/#tested ([1]; test 32, PES in solution 4 %, PES in process chamber 0.47 g/m^3, process duration 5 min): 0/1
Biological Result #not sterile/#tested ([2]; test 5, PES in process chamber 1.9 g/m^3, process duration 120 min): 0/4
Biological Result #not sterile/#tested ([2]; test 7, PES in process chamber 1.9 g/m^3, process duration 60 min): 0/4
Biological Result #not sterile/#tested ([2]; test 8, PES in process chamber 1.9 g/m^3, process duration 45 min): 0/4
Biological Result #not sterile/#tested ([2]; test 12, PES in process chamber 1.9 g/m^3, process duration 15 min): 0/4
Biological Result #not sterile/#tested ([2]; test 13, PES in process chamber 1.9 g/m^3, process duration 10 min): 0/4
Biological Result #not sterile/#tested ([2]; test 14, PES in process chamber 1.9 g/m^3, process duration 5 min): 0/4
Biological Result #not sterile/#tested ([2]; test 15, PES in process chamber 1.7 g/m^3, process duration 20 min): 0/4
Biological Result #not sterile/#tested ([2]; test 16, PES in process chamber 1.7 g/m^3, process duration 15 min): 0/4
Biological Result #not sterile/#tested ([2]; test 19, PES in process chamber 1.3 g/m^3, process duration 20 min): 0/4
Biological Result #not sterile/#tested ([2]; test 20, PES in process chamber 1.3 g/m^3, process duration 15 min): 0/4
Biological Result #not sterile/#tested ([2]; test 21, PES in process chamber 0.94 g/m^3, process duration 60 min): 0/4
Biological Result #not sterile/#tested ([2]; test 22, PES in process chamber 0.94 g/m^3, process duration 40 min): 0/4
Biological Result #not sterile/#tested ([2]; test 23, PES in process chamber 0.94 g/m^3, process duration 30 min, not sterile: pipette): (pipette) 1/8
Biological Result #not sterile/#tested ([2]; test 24, PES in process chamber 0.94 g/m^3, process duration 20 min): 0/8
Biological Result #not sterile/#tested ([2]; test 25, PES in process chamber 0.94 g/m^3, process duration 15 min, not sterile: pipette): (pipette) 1/4
Biological Result #not sterile/#tested ([2]; test 26, PES in process chamber 0.94 g/m^3, process duration 10 min): 0/4
Biological Result #not sterile/#tested ([2]; test 27, PES in process chamber 0.94 g/m^3, process duration 5 min, not sterile: pipette): (pipette) 1/4
Biological Result #not sterile/#tested ([2]; test 28, PES in process chamber 0.47 g/m^3, process duration 60 min): 0/4
Biological Result #not sterile/#tested ([2]; test 29, PES in process chamber 0.47 g/m^3, process duration 30 min): 0/4
Biological Result #not sterile/#tested ([2]; test 30, PES in process chamber 0.47 g/m^3, process duration 15 min, not sterile: Eppi): (Eppi) 1/4
Biological Result #not sterile/#tested ([2]; test 31, PES in process chamber 0.47 g/m^3, process duration 10 min, not sterile: pipette): (pipette) 1/4
Biological Result #not sterile/#tested ([2]; test 32, PES in process chamber 0.47 g/m^3, process duration 5 min, not sterile: mask, pipette): (mask, pipette) 2/4
spore growth after seven days in nutrient solution ([2]; various tests, relatively low PES concentration in the process chamber and short process duration): spore growth was observed after seven days
cytotoxic and pro-inflammatory effects [3]: neither cytotoxic nor pro-inflammatory effects
